Tests used:
[1] = test system: isolated pancreatic islets; experiment: Insulin content of pancreatic islets isolated from treated ZDF rats; type: in vivo, rat; conditions: 10 mg/kg oral for 3 weeks, vehicle 4.78±0.86, fa+ 27.74±6.85, mean±SEM
Method: Male ZDF fa/fa and ZDF fa+ rats were obtained from Genetic Models (Indianapolis, Ind.), at the age of 6 weeks and used in the experiments at 12 weeks of age, after 3 weeks of oral treatment with vehicle or GW3965 (10 mg/kg). Compounds were given once daily (at 17 h) via oral gavage. At the time of their use, the ZDF fa/fa rats weighed 310-350 g, whereas the age-matched ZDF fa+ rats weighed 245-285 g. ZDF fa+ and ZDF fa/fa animals had free access to diabetogenic chow (Purina 5008). Animals were housed 5 per cage in a temperature and humidity-controlled room with a 12/12-h light-dark cycle. Blood samples were taken 16 h after compound administration via the tail vein and measured on a Konelab 300 (Labsystem) clinical chemistry analyzer. Rat pancreatic islets were prepared by collagenase digestion and density gradient purification. The enzyme collagenase type XI (Sigma Chemical, St. Louis, Mo.) was used for digestion of the pancreas. After an overnight fast, animals were deeply anesthetized and killed. Then, the pancreatic duct was cannulated, and 20 ml of the digestion solution at 37° C. […] Insulin content was measured in the same islets after an overnight alcohol-acid extraction (Ethanol 75%+HCl 0.15 N). Insulin concentrations in the different media were determined by rat insulin ELISA test (Insulin Rat Elite plus, MERCODIA).

NOD mice = experiment: Insulitis development in NOD mice (pancreatic histology); type: in vivo, mouse
Excerpt: NOD (non-obese diabetes) mice is an experimental model of spontaneous resembling human Type I (insulin-dependent) diabetes, which results from the progressive islet invasion and beta cells destruction by autoreactive T cells. This spontaneous diabetes model offers a unique opportunity of studying the autoreactive T cells involved in the process of beta cell destruction and of settling preventive strategies before clinical onset of the disease. Non fasted mice were killed two days after the last administration of compounds. Pancreatic glands were excised and processed for conventional histological studies after fixation in Bouin's alcoholic solution. Five μm sections were stained with haematoxylin-eosin as described previously by Thivolet C. H. et al., 1991, Diabetologia, 34, 314-319. The evolution of insulitis was analysed in pancreas. […] State 4 was not observed in 8 weeks old mice, this state appeared at around 9-10 weeks. NOD mice of 4 weeks old have been treated for 4 weeks (5 days/7) with vehicle or GW3965 at 50 mg/kg. Pancreatic histological studies have been carried out as described above.

[2] = test system: isolated pancreatic islets; experiment: Apoptosis by measurement of DNA fragments (Cell Death Detection ELISA) in isolated islets; type: in vivo, rat; conditions: islets of ZDF rats, 10 mg/kg oral, overnight culture in RPMI; vehicle 43.1±9.2%, fa+ 19.9±6.2%
Method: Rat pancreatic islets were prepared by collagenase digestion and density gradient purification. The enzyme collagenase type XI (Sigma Chemical, St. Louis, Mo.) was used for digestion of the pancreas. After an overnight fast, animals were deeply anesthetized and killed. Then, the pancreatic duct was cannulated, and 20 ml of the digestion solution at 37° C. (collagenase 30 mg/ml dissolved in 20 ml Hanks' balanced salt solution [HBSS]) (Sigma Chemical, St. Louis, Mo.) was slowly injected to distend the tissue. After distension, the pancreas was placed into a 20-ml glass beaker containing 5 ml of the digestion solution at 37° C. that was set into a shaking water bath at 37° C. for 8 minutes. After centrifugation at 633 g for 1 min at 4° C., the supernatant was removed and the islets were washed three times with HBSS by centrifugation at 633 g for 1 min at 4° C. For the purification procedure, the islets were resuspended in 4 ml of 80% Histopaque 1.077 (Sigma) and 4 ml HBSS. […] The apoptosis of islet cells was assessed by the Cell Death Detection enzyme-linked immunosorbent assay (ELISA) plus Kit from Roche, according to the procedures recommended by the manufacturer and applied to rat islet experiment. […] At the end of the 5-min incubation, absorbance of samples was read spectrophotometrically at 405 nm. The results were expressed as a percent of internal standard (nucleosomal particles). […]

## O=C(O)Cc1cccc(OCCCN(Cc2cccc(C(F)(F)F)c2Cl)CC(c2ccccc2)c2ccccc2)c1 [GW3965]
[1]
  insulin content of islets: 13.05±2.49 ng/islet
NOD mice; NOD mice of 4 weeks old, 50 mg/kg for 4 weeks (5 days/7), control 32%
  normal islets in the pancreas: 94%
NOD mice; NOD mice, 50 mg/kg for 4 weeks, pancreatic sections
  insulitis (lymphocytes infiltration): appears protected against the lymphocytes infiltration
[2]
  apoptosis, DNA fragments as percent of internal standard: 34.0±7.5%

Reference: patent US8030335B2, “Use of liver X receptor agonists” (Laboratoires Fournier S.A., priority 2005, dated 2011)
